Assay results taken from patent US7727736B2, “Soluble phospholipids for use in clotting factor assays” (The University of North Carolina at Chapel Hill, priority 2003, dated 2010).

Key:
[1] = target: T1, prothrombinase complex (FXa-FVa) (Homo sapiens, UniProt P00742+P12259); experiment: Kinetics of prothrombin and MzIIa activation by C6PS- or membrane-assembled prothrombinase; type: biochemical
T1 construct: Human prothrombin and factor Xa; tissue Hematologic Technologies Inc. (factor Xa only); factor Xa purchased
Experimental: Fluorescence Stopped-Flow Measurements. The rates of thrombin formation from either MzIIa or Pre2 (with equimolar fragment 1.2), or of thrombin plus MzIIa formation from human prothrombin, were estimated from the time-dependent fluorescence change of DAPA bound to the activation products. […] Stopped-flow measurements were performed using an SLM-Aminco Milliflow® stopped flow reactor (Spectronic Instruments, Inc., Rochester, N.Y.) attached to the SLM 48000® spectrofluorometer (Spectronic Instruments) as described (Wu, et al. (2002) supra; Weinreb, et al. (2003) supra). […] The calculation of rates from measurements of initial fluorescence intensity (F0) and intensity at the completion of the reaction (F∞) is well-established (Nesheim and Mann (1983) supra; Wu, et al. (2002) supra).
Rapid Chemical Quench Measurements. […] Prothrombin solution in 50 mM Tris, 150 mM NaCl, 5 mM Ca^2+, 0.6% PEG (to limit thrombin adsorption to micro-plates), pH 7.5, was loaded into one sample loop, and pre-assembled prothrombinase complex (factor concentrations same as in stopped flow fluorescence studies) in the same buffer was loaded into another sample loop. […]

[2] = target: FXa (Homo sapiens, UniProt P00742); conditions: equilibrium dialysis; cited from earlier work
Sequence of FXa (P00742 41-179 limits assumed): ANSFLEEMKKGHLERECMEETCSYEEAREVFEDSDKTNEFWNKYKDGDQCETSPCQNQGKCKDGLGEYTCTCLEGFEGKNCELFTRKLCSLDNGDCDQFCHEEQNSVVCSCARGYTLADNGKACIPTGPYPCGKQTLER
Sequence of FXa (P00742 235-488 limits assumed): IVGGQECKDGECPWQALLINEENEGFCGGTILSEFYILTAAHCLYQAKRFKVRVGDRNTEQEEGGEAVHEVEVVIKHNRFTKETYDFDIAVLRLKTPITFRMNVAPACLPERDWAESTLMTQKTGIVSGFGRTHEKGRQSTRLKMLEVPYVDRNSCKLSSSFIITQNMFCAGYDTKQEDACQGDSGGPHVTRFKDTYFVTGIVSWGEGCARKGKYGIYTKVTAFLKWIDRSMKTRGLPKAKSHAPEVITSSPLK

T1 sequence (P00742 41-179 limits assumed): as the sequence (P00742 41-179 limits assumed) above
T1 sequence (P00742 235-488 limits assumed): as the sequence (P00742 235-488 limits assumed) above
T1 sequence (P12259 29-737 limits assumed): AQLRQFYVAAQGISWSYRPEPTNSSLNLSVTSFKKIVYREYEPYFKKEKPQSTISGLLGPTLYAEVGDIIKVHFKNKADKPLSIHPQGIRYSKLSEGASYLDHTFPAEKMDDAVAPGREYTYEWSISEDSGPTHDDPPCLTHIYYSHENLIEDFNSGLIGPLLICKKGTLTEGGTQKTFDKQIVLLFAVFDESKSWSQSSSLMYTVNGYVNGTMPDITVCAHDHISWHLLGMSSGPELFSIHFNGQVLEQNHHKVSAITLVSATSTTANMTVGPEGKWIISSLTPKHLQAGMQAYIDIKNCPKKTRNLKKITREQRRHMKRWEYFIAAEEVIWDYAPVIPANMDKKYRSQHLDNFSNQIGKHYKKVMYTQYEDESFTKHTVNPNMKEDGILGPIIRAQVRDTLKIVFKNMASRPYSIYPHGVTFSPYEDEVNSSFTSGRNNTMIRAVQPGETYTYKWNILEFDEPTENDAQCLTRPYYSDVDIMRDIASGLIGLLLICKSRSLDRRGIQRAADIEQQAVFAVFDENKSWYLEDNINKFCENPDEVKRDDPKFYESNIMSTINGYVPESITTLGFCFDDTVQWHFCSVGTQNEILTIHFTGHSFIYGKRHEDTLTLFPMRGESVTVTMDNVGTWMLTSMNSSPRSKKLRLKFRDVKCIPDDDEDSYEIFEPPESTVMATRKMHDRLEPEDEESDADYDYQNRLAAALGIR
T1 sequence (P12259 1574-2224 limits assumed): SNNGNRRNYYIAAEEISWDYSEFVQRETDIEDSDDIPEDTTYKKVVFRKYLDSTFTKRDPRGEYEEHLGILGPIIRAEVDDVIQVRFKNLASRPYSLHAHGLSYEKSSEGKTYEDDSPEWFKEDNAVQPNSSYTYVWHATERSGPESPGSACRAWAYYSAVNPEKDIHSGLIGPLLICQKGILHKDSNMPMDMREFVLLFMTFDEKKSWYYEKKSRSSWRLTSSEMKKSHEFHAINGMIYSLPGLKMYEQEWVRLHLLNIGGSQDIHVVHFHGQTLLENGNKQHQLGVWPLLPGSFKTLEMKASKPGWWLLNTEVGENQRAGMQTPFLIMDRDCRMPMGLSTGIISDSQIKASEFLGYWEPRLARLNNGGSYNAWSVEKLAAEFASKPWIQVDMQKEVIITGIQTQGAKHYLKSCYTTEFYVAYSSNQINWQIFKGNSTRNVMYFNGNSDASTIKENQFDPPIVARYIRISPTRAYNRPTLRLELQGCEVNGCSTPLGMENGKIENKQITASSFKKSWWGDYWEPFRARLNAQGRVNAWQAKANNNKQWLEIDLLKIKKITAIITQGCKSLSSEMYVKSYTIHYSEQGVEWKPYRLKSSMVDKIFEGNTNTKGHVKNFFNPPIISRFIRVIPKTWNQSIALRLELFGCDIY

SMILES: CCCCCC(=O)OC[C@H](COP(=O)(O)OC[C@H](N)C(=O)O)OC(=O)CCCCC [C6PS, 1,2-dicaproyl-sn-glycero-3-phospho-L-serine]
- fraction of prothrombin converted directly (channeled) to thrombin ([1]; 400 μM C6PS, FXa 1 nM, FVa2 5 nM): 58%
- activation by C6PS-assembled complex relative to literature membrane complex ([1]; C6PS with FVa2 vs membrane with FVa): an order of magnitude faster
- stoichiometry of C6PS binding to FXa at saturation [2]: 2
